Laboratory results taken from patent publication US11254686B1 (Corvus Pharmaceuticals, Inc., priority 2017, dated 2022).

Columns and labels:
adenosine A2A receptor = adenosine A2A receptor (Homo sapiens (Human), UniProt P29274); test: Adenosine receptor activity assay (Table 1), A2A activity; assay type: biochemical; details: read-out: Ave A2A cAMP IC50
adenosine A2B receptor = adenosine A2B receptor (Homo sapiens (Human), UniProt P29275); test: Adenosine receptor activity assay (Table 1), A2B activity; assay type: biochemical; details: for Ratio: A2A activity to A2B activity (A2A/A2B); for IC50: read-out: Ave A2B cAMP IC50
Sequence of adenosine A2B receptor (P29275 whole entry): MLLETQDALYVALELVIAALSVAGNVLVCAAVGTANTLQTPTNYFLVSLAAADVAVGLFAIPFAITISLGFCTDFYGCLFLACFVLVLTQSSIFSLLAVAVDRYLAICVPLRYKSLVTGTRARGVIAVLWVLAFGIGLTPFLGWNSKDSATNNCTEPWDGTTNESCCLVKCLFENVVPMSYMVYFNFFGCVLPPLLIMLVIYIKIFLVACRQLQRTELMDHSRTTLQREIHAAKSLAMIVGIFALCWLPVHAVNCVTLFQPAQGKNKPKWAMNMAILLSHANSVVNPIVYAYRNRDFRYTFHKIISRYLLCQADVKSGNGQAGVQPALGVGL

Sequence of adenosine A2A receptor (P29274 whole entry): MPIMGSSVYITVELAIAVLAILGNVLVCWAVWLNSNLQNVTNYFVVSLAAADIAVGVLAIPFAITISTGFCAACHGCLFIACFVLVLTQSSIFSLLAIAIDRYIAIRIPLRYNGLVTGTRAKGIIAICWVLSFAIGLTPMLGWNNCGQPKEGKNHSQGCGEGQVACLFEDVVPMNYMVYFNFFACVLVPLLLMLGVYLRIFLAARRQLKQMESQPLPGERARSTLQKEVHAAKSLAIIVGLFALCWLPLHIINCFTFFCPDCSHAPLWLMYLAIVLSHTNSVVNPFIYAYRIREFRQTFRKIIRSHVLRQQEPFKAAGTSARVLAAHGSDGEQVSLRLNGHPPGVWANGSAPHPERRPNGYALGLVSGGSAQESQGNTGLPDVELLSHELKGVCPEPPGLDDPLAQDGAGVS

Row | Molecule | IC50 (adenosine A2A receptor) | Ratio (adenosine A2B receptor) | IC50 (adenosine A2B receptor)
1 | 2-(((5-Fluoropyridin-3-yl)methyl)amino)-N-((tetrahydro-2H-pyran-4-yl)methyl)thieno[3,2-d]pyrimidine-4-carboxamide [Example Z219] | 100 to 500 nM | 8.45 | 10 to 50 nM
2 | C[C@H](NC(=O)c1nc(N[C@@H](C)c2cccnc2)nc2ccsc12)c1cccnc1 [Example Z1, N—((S)-1-(Pyridin-3-yl)ethyl)-2-(((S)-1-(pyridin-3-yl)ethyl)amino)thieno[3,2-d]pyrimidine-4-carboxamide] | 50 to 100 nM | 0.55 | 100 to 500 nM
3 | C[C@H](Nc1nc(C(=O)N2CCC(C)(C)C2)c2sccc2n1)c1cccnc1 [Example Z3, (S)-(3,3-Dimethylpyrrolidin-1-yl)(2-((1-(pyridin-3-yl)ethyl)amino)thieno[3,2-d]pyrimidin-4-yl)methanone] | 100 to 500 nM | 1.26 | 100 to 500 nM
4 | O=C(NCc1cncnc1)c1nc(NCc2cncnc2)nc2ccsc12 [Example Z4, N-(Pyrimidin-5-ylmethyl)-2-((pyrimidin-5-ylmethyl)amino)thieno[3,2-d]pyrimidine-4-carboxamide] | > 500 nM | 0.95 | > 500 nM
5 | O=C(c1nc(NCc2cncnc2)nc2ccsc12)N1CCCC1 [Example Z5, (2-((Pyrimidin-5-ylmethyl)amino)thieno[3,2-d]pyrimidin-4-yl)(pyrrolidin-1-yl)methanone] | > 500 nM | 18.06 | 100 to 500 nM
6 | C[C@H](Nc1nc(C(=O)NCc2cncnc2)c2sccc2n1)c1cccnc1 [Example Z6, (S)-2-((1-(Pyridin-3-yl)ethyl)amino)-N-(pyrimidin-5-ylmethyl)thieno[3,2-d]pyrimidine-4-carboxamide] | > 500 nM | 0.49 | > 500 nM
7 | CC1(C)CCN(C(=O)c2nc(NCc3cncnc3)nc3ccsc23)C1 [Example Z7, (3,3-Dimethylpyrrolidin-1-yl)(2-((pyrimidin-5-ylmethyl)amino)thieno[3,2-d]pyrimidin-4-yl)methanone] | > 500 nM | 0.57 | > 500 nM
8 | C[C@H](Nc1nc(C(=O)N2CCOCC2)c2sccc2n1)c1cccnc1 [Example Z11, (S)-Morpholino(2-((1-(pyridin-3-yl)ethyl)amino)thieno[3,2-d]pyrimidin-4-yl)methanone] | > 500 nM | 4.88 | > 500 nM
9 | COc1ccc(CNC(=O)c2nc(NCc3ccc(OC)nc3)nc3ccsc23)cn1 [Example Z12, N-((6-Methoxypyridin-3-yl)methyl)-2-(((6-methoxypyridin-3-yl)methyl)amino)thieno[3,2-d]pyrimidine-4-carboxamide] | 50 to 100 nM | 0.15 | > 500 nM
10 | C[C@H](Nc1nc(C(=O)N2CC3(COC3)C2)c2sccc2n1)c1cccnc1 [Example Z14, (S)-(2-((1-(Pyridin-3-yl)ethyl)amino)thieno[3,2-d]pyrimidin-4-yl)(2-oxa-6-azaspiro[3.3]heptan-6-yl)methanone] | 100 to 500 nM | 1.35 | 100 to 500 nM
11 | O=C(NCc1cncc(F)c1)c1nc(NCc2cncc(F)c2)nc2ccsc12 [Example Z15, N-((5-Fluoropyridin-3-yl)methyl)-2-(((5-fluoropyridin-3-yl)methyl)amino)thieno[3,2-d]pyrimidine-4-carboxamide] | > 500 nM | 9.43 | 100 to 500 nM
12 | COc1ccc(CNc2nc(C(=O)N3CCCC3)c3sccc3n2)cn1 [Example Z17, (2-(((6-Methoxypyridin-3-yl)methyl)amino)thieno[3,2-d]pyrimidin-4-yl)(pyrrolidin-1-yl)methanone] | 50 to 100 nM | 0.19 | 100 to 500 nM
13 | C[C@H](Nc1nc(C(=O)NCc2cncc(F)c2)c2sccc2n1)c1cccnc1 [Example Z20, (S)—N-((5-Fluoropyridin-3-yl)methyl)-2-((1-(pyridin-3-yl)ethyl)amino)thieno[3,2-d]pyrimidine-4-carboxamide] | 100 to 500 nM | 0.62 | 100 to 500 nM
14 | CN(C(=O)c1nc(NCc2cncc(F)c2)nc2ccsc12)C1CCC(C)(C)C1 (stereo not shown) [Example Z22, N-(3,3-Dimethylcyclopentyl)-2-(((5-fluoropyridin-3-yl)methyl)amino)-N-methylthieno[3,2-d]pyrimidine-4-carboxamide] | > 500 nM | 7.49 | > 500 nM
15 | CCC(NC(=O)c1nc(NC(CC)c2cccnc2)nc2ccsc12)c1cccnc1 (stereo not shown) [Example Z23, N-(1-(Pyridin-3-yl)propyl)-2-((1-(pyridin-3-yl)propyl)amino)thieno[3,2-d]pyrimidine-4-carboxamide] | > 500 nM | 5.63 | > 500 nM
16 | CCC(NC(=O)c1nc(N[C@@H](C)c2cccnc2)nc2ccsc12)c1cccnc1 (stereo partly drawn) [Example Z24, 2-(((S)-1-(Pyridin-3-yl)ethyl)amino)-N-(1-(pyridin-3-yl)propyl)thieno[3,2-d]pyrimidine-4-carboxamide] | > 500 nM | 2.92 | 100 to 500 nM

Row | Molecule | IC50 (adenosine A2A receptor) | Ratio (adenosine A2B receptor) | IC50 (adenosine A2B receptor)
17 | CCC(Nc1nc(C(=O)N2CCCC2)c2sccc2n1)c1cccnc1 (stereo not shown) [Example Z25, (2-((1-(Pyridin-3-yl)propyl)amino)thieno[3,2-d]pyrimidin-4-yl)(pyrrolidin-1-yl)methanone] | 100 to 500 nM |  | 10 to 50 nM
18 | CCC(Nc1nc(C(=O)N2CC[C@@H](OC)C2)c2sccc2n1)c1cccnc1 (stereo partly drawn) [Example Z26, ((R)-3-Methoxypyrrolidin-1-yl)(2-((1-(pyridin-3-yl)propyl)amino)thieno[3,2-d]pyrimidin-4-yl)methanone] | 50 to 100 nM | 2.58 | 10 to 50 nM
19 | C[C@H](Nc1nc(C(=O)NCC2CCN(Cc3ccccc3)CC2)c2sccc2n1)c1cccnc1 [Example Z27, (S)—N-((1-benzylpiperidin-4-yl)methyl)-2-((1-(pyridin-3-yl)ethyl)amino)thieno[3,2-d]pyrimidine-4-carboxamide] | 100 to 500 nM | 1.97 | 50 to 100 nM
20 | C[C@H](Nc1nc(C(=O)N[C@H](C)c2cccnc2)c2sccc2n1)c1cccnc1 [Example Z30, N—((R)-1-(Pyridin-3-yl)ethyl)-2-(((S)-1-(pyridin-3-yl)ethyl)amino)thieno[3,2-d]pyrimidine-4-carboxamide] | > 500 nM | 8.34 | 100 to 500 nM
21 | C[C@H](Nc1nc(C(=O)N2CCCCC2)c2sccc2n1)c1cccnc1 [Example Z31, (S)-Piperidin-1-yl(2-((1-(pyridin-3-yl)ethyl)amino)thieno[3,2-d]pyrimidin-4-yl)methanone] | > 500 nM | 40.00 | 100 to 500 nM
22 | COc1ccc(CNC(=O)c2nc(N[C@@H](C)c3cccnc3)nc3ccsc23)cc1OC [Example Z33, (S)—N-(3,4-Dimethoxybenzyl)-2-((1-(pyridin-3-yl)ethyl)amino)thieno[3,2-d]pyrimidine-4-carboxamide] | > 500 nM | 4.57 | > 500 nM
23 | O=C(NCc1cccnn1)c1nc(NCc2cccnn2)nc2ccsc12 [Example Z35, N-(Pyridazin-3-ylmethyl)-2-((pyridazin-3-ylmethyl)amino)thieno[3,2-d]pyrimidine-4-carboxamide] | > 500 nM | 1.00 | > 500 nM
24 | C[C@H](Nc1nc(C(=O)N2CCC[C@@H]2C)c2sccc2n1)c1cccnc1 [Example Z36, ((S)-2-Methylpyrrolidin-1-yl)(2-(((S)-1-(pyridin-3-yl)ethyl)amino)thieno[3,2-d]pyrimidin-4-yl)methanone] | 100 to 500 nM | 1.55 | 100 to 500 nM
25 | C[C@H](Nc1nc(C(=O)N2CCC[C@H]2C)c2sccc2n1)c1cccnc1 [Example Z37, ((R)-2-Methylpyrrolidin-1-yl)(2-(((S)-1-(pyridin-3-yl)ethyl)amino)thieno[3,2-d]pyrimidin-4-yl)methanone] | > 500 nM | 64.10 | 100 to 500 nM
26 | CCC(Nc1nc(C(=O)NCc2ccc(OC)nc2)c2sccc2n1)c1cccnc1 (stereo not shown) [Example Z83, N-((6-Methoxypyridin-3-yl)methyl)-2-((1-(pyridin-3-yl)propyl)amino)thieno[3,2-d]pyrimidine-4-carboxamide] | 100 to 500 nM |  | 
27 | COc1cncc(CNC(=O)c2nc(N[C@@H](C)c3ccccn3)nc3ccsc23)c1 [Example Z110, (S)—N-((5-Methoxypyridin-3-yl)methyl)-2-((1-(pyridin-2-yl)ethyl)amino)thieno[3,2-d]pyrimidine-4-carboxamide] |  | 3.23 | 50 to 100 nM
28 | COCC(Nc1nc(C(=O)N2CCC2)c2sccc2n1)c1cccnc1 (stereo not shown) [Example Z126, Azetidin-1-yl(2-((2-methoxy-1-(pyridin-3-yl)ethyl)amino)thieno[3,2-d]pyrimidin-4-yl)methanone] |  |  | 10 to 50 nM
29 | C[C@H](Nc1nc(C(=O)N2CC[C@@H](S(C)(=O)=O)C2)c2sccc2n1)c1ccccn1 [Example Z256] |  |  | 100 to 500 nM
30 | C[C@H](Nc1nc(C(=O)N[C@H]2CC[C@@H](O)C2)c2sccc2n1)c1ccccn1 [Example Z332, N-((1S,3R)-3-Hydroxycyclopentyl)-2-(((S)-1-(pyridin-2-yl)ethyl)amino)thieno[3,2-d]pyrimidine-4-carboxamide] | 100 to 500 nM |  | 
31 | C[C@H](Nc1nc(C(=O)NCCc2ccccc2O)c2sccc2n1)c1cncc(F)c1 [Example Z448, (S)-2-((1-(5-fluoropyridin-3-yl)ethyl)amino)-N-(2-hydroxyphen-ethyl)thieno[3,2-d]pyrimidine-4-carboxamide] | 100 to 500 nM |  | 
32 | CNCC1CN(C(=O)c2nc(N[C@@H](C)c3cncc(F)c3)nc3ccsc23)C1 [Example Z544, (S)-(2-((1-(5-Fluoropyridin-3-yl)ethyl)amino)thieno[3,2-d]pyrimidin-4-yl)(3-((methylamino)methyl)azetidin-1-yl)methanone] |  |  | 100 to 500 nM
